From PMC12040169 (PLOS Biology, 2025)

assay: in vitro; conditions: human, hela cells, % viability

**Q.** With Cc1ccc(C)c(NC(=O)C(C)Sc2nc3ccccc3nc2C)c1 (stereo not drawn) [CBK296744] as the compound, how does the viability at 28.5 h, 10 µM read?
**A.** 106%

**Q.** With CCCNC(=O)C(C)Sc1nc2ccsc2c(=O)n1CC (stereo not drawn) [CBK296745] as the compound, how does the viability at 28.5 h, 10 µM read?
**A.** 105%

**Q.** Which viability at 28.5 h, 10 µM does the source give for COc1ccccc1NC(=O)C1CCN(C(=O)OC(C)(C)C)CC1 [CBK296746] here?
**A.** 90.5%

**Q.** With CC1CC1C(=O)NCC(=O)N1CCN(S(=O)(=O)c2ccccc2[N+](=O)[O-])CC1 (stereo not drawn) [CBK296747] as the compound, how does the viability at 28.5 h, 10 µM read?
**A.** 90.4%

**Q.** With CC(Nc1ccc2[nH]c(=O)[nH]c2c1)C(=O)N1CCN(c2ccccc2)CC1 (stereo not drawn) [CBK296748] as the compound, how does the viability at 28.5 h, 10 µM read?
**A.** 99.4%

**Q.** Which viability at 28.5 h, 10 µM does the source give for N#Cc1ccccc1CSCCNC(=O)c1ccc(NC(=O)c2ccco2)s1 [CBK296749] here?
**A.** 80.8%

**Q.** Which viability at 28.5 h, 10 µM does the source give for C=CCn1c(Cc2csc(NC(=O)c3ccc(OC)cc3O)n2)n[nH]c1=S [CBK296752] here?
**A.** 104%

**Q.** With COc1ccc(S(=O)(=O)N2CCN(C(C(=O)O)c3ccc(C)cc3)CC2)cc1 (stereo not drawn) [CBK296753] as the compound, how does the viability at 28.5 h, 10 µM read?
**A.** 104%

**Q.** Which viability at 28.5 h, 10 µM does the source give for COc1cc(N)c(Cl)cc1C(=O)OCc1cc2ccc(C)cc2nc1Cl [CBK296755] here?
**A.** 89.7%

**Q.** With NC(=O)C1CCN(C(=O)C2=NN(c3ccccc3)C(c3ccccc3)C2)CC1 (stereo not drawn) [CBK296760] as the compound, how does the viability at 28.5 h, 10 µM read?
**A.** 99.1%

**Q.** With COc1cc(NC(=O)CC2(C(=O)O)CCCCC2)ccc1N1CCCC1=O [CBK296761] as the compound, how does the viability at 28.5 h, 10 µM read?
**A.** 109%

**Q.** For CCc1nnc(COC(=O)c2ccccc2NC(=O)Cc2ccccc2)o1 [CBK296762], which viability at 28.5 h, 10 µM is on record?
**A.** 81.5%

**Q.** Which viability at 28.5 h, 10 µM does the source give for Cc1ccc(-n2c(C)cc(C(=O)CSc3n[nH]c(=O)n3C3CC3)c2C)cc1C [CBK296764] here?
**A.** 92.3%

**Q.** Which viability at 28.5 h, 10 µM does the source give for Cn1c(Cc2csc(NC(=O)CNC(=O)Cc3ccccc3)n2)n[nH]c1=S [CBK296765] here?
**A.** 102%

**Q.** Which viability at 28.5 h, 10 µM does the source give for Cc1ccc(CC(=O)Nc2nc(Cc3n[nH]c(=S)n3C)cs2)cc1 [CBK296766] here?
**A.** 90.5%

**Q.** With O=C(O)c1cc(S(=O)(=O)NCc2ccc(Cl)cc2Cl)ccc1O [CBK296924] as the compound, how does the viability at 28.5 h, 10 µM read?
**A.** 94.7%

**Q.** With CCn1c(-c2ccc(C)cc2)cnc1SCC(=O)N1CCN(C(C)=O)CC1 [CBK296925] as the compound, how does the viability at 28.5 h, 10 µM read?
**A.** 110%

**Q.** Which viability at 28.5 h, 10 µM does the source give for CCCCN(C(=O)c1cc(C)nc2ccccc12)c1ccccc1 [CBK296926] here?
**A.** 89.9%

**Q.** For Cc1ccc(C2=NN(C(=O)CCC(=O)O)C(c3cc4cccc(C)c4[nH]c3=O)C2)cc1 (stereo not drawn) [CBK296927], which viability at 28.5 h, 10 µM is on record?
**A.** 91%

**Q.** With CC(=O)Nc1ccc(NC(=O)CC2(CC(=O)O)CCCC2)cc1 [CBK296931] as the compound, how does the viability at 28.5 h, 10 µM read?
**A.** 97.3%

**Q.** With Cc1ccc(Cn2ccsc2=NC(=O)c2cc(S(=O)(=O)N3CCOCC3)ccc2C)cc1 [CBK296935] as the compound, how does the viability at 28.5 h, 10 µM read?
**A.** 101%

**Q.** For O=C(Cn1nc(C(=O)O)c2ccccc2c1=O)c1ccc(S(=O)(=O)N2CCOCC2)cc1 [CBK296939], which viability at 28.5 h, 10 µM is on record?
**A.** 90.2%

**Q.** Which viability at 28.5 h, 10 µM does the source give for CCN(CC)C(=O)c1cccc(NS(=O)(=O)c2cccc(C(=O)O)c2)c1 [CBK296943] here?
**A.** 97.6%

**Q.** For CC1CCCC(C)N1S(=O)(=O)c1ccc(NS(=O)(=O)c2cccc(C(=O)O)c2)cc1 (stereo not drawn) [CBK296944], which viability at 28.5 h, 10 µM is on record?
**A.** 94.6%

**Q.** For COc1cc(C=c2sc(=CC(=O)C(C)(C)C)[nH]c2=O)ccc1OCC(=O)O [CBK296948], which viability at 28.5 h, 10 µM is on record?
**A.** 104%

**Q.** For O=C(Cc1ccc(Cl)cc1Cl)Nc1ccc(-c2nnc3n2CCCCC3)cc1 [CBK296949], which viability at 28.5 h, 10 µM is on record?
**A.** 94.8%

**Q.** With CC(C)NS(=O)(=O)c1ccc(NS(=O)(=O)c2cccc(C(=O)O)c2)cc1 [CBK296950] as the compound, how does the viability at 28.5 h, 10 µM read?
**A.** 84.3%

**Q.** For Cc1ccc(NS(=O)(=O)c2cc(C(=O)O)ccc2Cl)cc1S(=O)(=O)N1CCOCC1 [CBK296954], which viability at 28.5 h, 10 µM is on record?
**A.** 113%

**Q.** With Cc1nc(SCCN2C(=O)c3ccccc3S2(=O)=O)c2ccccc2n1 [CBK296958] as the compound, how does the viability at 28.5 h, 10 µM read?
**A.** 90%

**Q.** For Cc1ccc2nc(COC(=O)c3cc(-c4ccccc4)nn3-c3ccccc3)cc(=O)n2c1 [CBK296959], which viability at 28.5 h, 10 µM is on record?
**A.** 89.8%

**Q.** With CCCn1c(SCC(=O)c2ccc(CCNC(C)=O)cc2)n[nH]c1=O [CBK296965] as the compound, how does the viability at 28.5 h, 10 µM read?
**A.** 92.1%

**Q.** With CCCn1c(SCc2nc(N)nc(Nc3ccccc3CC)n2)n[nH]c1=O [CBK296966] as the compound, how does the viability at 28.5 h, 10 µM read?
**A.** 86.6%

**Q.** Which viability at 28.5 h, 10 µM does the source give for CCCn1c(SCC(=O)Nc2scc(-c3cccs3)c2C(=O)OCC)n[nH]c1=O [CBK296967] here?
**A.** 94.5%
